Assays:
Type in all cases: physicochemical
[1] = foam half-life (seconds needed to drain 100 mL of solution from the foam); conditions: for Foam Half-Life: 200 mL of 500 ppm solution, seconds to drain 100 mL of solution from the foam; for foam half-life relative to anionic Comparative Examples C4 to C7 (in words): 500 ppm, versus anionic Comparative Examples C4 to C7
Procedure: (§1) In the following Examples and Comparative Examples, fluoroaliphatic radical-containing compounds were prepared. The surface tension of water and isopropyl alcohol solutions containing these compounds was measured using a du Nouy tensiometer. The foaming properties of these solutions were also evaluated by generating foam and measuring the foam volume and half life.
(§2) Foam was generated from 200 mL of the 500 ppm solutions used for measuring surface tension. The surfactant solutions were mixed with a Hobart mixer for 3 minutes at medium speed. Foam volume (cubic centimeters of foam) was measured in a graduated cylinder. Foam half-life was measured as the seconds needed to drain 100 mL of solution from the foam.

[2] = surface tension of aqueous solutions (du Nouy tensiometer); conditions: diluted from 10% solids in water/isopropyl alcohol; for Surface tension (dynes/cm) at 100 ppm: 100 ppm (0.01% solids) in deionized water; for Surface tension (dynes/cm) at 500 ppm: 500 ppm (0.05% solids) in deionized water
Procedure: as §1
The fluorochemical solutions obtained in Examples 1 to 6 and Comparative Examples C1 to C12 were diluted to 10% solids by dilution with a solution of 70% by volume water and 30% by volume isopropyl alcohol. Further dilutions to 0.01% solids (100 ppm), and 0.05% solids (500 ppm), were done with deionized water.

[3] = foam volume of surfactant solutions (Hobart mixer, graduated cylinder); conditions: for Foam Volume: 200 mL of 500 ppm solution, Hobart mixer 3 minutes at medium speed; for foam volume relative to anionic Comparative Examples C4 to C7 (in words): 500 ppm, versus anionic Comparative Examples C4 to C7
Procedure: as §1, §2

Compound	Foam Half-Life [1]	Surface tension (dynes/cm) at 100 ppm [2] [dynes/cm]	Surface tension (dynes/cm) at 500 ppm [2] [dynes/cm]	Foam Volume [3] [cm^3]	foam half-life relative to anionic Comparative Examples C4 to C7 (in words) [1]	foam volume relative to anionic Comparative Examples C4 to C7 (in words) [3]
CCN(CC(=O)O)S(=O)(=O)C(F)(F)C(F)(F)C(F)(F)C(F)(F)C(F)(F)C(F)(F)C(F)(F)C(F)(F)F [Comparative Example C4]	6.25 min	19.7	16.4	2600		
CCN(CCC(=O)O)S(=O)(=O)C(F)(F)C(F)(F)C(F)(F)C(F)(F)C(F)(F)C(F)(F)C(F)(F)C(F)(F)F [Comparative Example C5]	1.38 min	24.3	20.7	1500		
CCN(CCC(=O)O)S(=O)(=O)C(F)(F)C(F)(F)C(F)(F)C(F)(F)C(F)(F)C(F)(F)C(F)(F)C(F)(F)F [Comparative Example C6]	4.08 min	19.9	17.5	1900		
CCN(CCC(=O)O)S(=O)(=O)C(F)(F)C(F)(F)C(F)(F)C(F)(F)C(F)(F)C(F)(F)C(F)(F)C(F)(F)F [Comparative Example C7]	5 min	19.1	17.2	2200		
CCN(CCC(=O)NCCC[N+](C)(C)CC)S(=O)(=O)C(F)(F)C(F)(F)C(F)(F)C(F)(F)C(F)(F)C(F)(F)C(F)(F)C(F)(F)F [Comparative Example C8]	less than 30 sec.	20.5	18.5	600		
CCN(CCC(=O)NCCC[N+](C)(C)CCCS(=O)(=O)[O-])S(=O)(=O)C(F)(F)C(F)(F)C(F)(F)C(F)(F)C(F)(F)C(F)(F)C(F)(F)C(F)(F)F [Comparative Example C9]	0.583 min	20.0	18.3	900		
CC[N+](C)(CC)CCNS(=O)(=O)C(F)(F)C(F)(F)C(F)(F)C(F)(F)C(F)(F)C(F)(F)C(F)(F)C(F)(F)F [Comparative Example C11]	5.33 min	18.1	17.5	2600		
C[N+](C)(CCCNS(=O)(=O)C(F)(F)C(F)(F)C(F)(F)C(F)(F)C(F)(F)C(F)(F)F)CC(=O)[O-] [Comparative Example C12]	5.33 min	21.0	19.4	2400		
CC(C)(CS(=O)(=O)O)NC(=O)CCNCCNS(=O)(=O)C(F)(F)C(F)(F)C(F)(F)C(F)(F)C(F)(F)C(F)(F)C(F)(F)C(F)(F)F [Example 1]	less than 30 sec.	18.3	17.1	300	significantly shorter foam half-life	much lower foam volume
O=C(O)CCNCCNS(=O)(=O)C(F)(F)C(F)(F)C(F)(F)C(F)(F)C(F)(F)C(F)(F)C(F)(F)C(F)(F)F [Example 2]	less than 30 sec.	16.8	16.5	300	significantly shorter foam half-life	much lower foam volume
CC(C)(CS(=O)(=O)O)NC(=O)CCN1CCN(S(=O)(=O)C(F)(F)C(F)(F)C(F)(F)C(F)(F)C(F)(F)C(F)(F)C(F)(F)C(F)(F)F)CC1 [Example 3]		20.3	18.5			
CC(C)(CS(=O)(=O)O)NC(=O)CCNCCC[Si](C)(C)O[Si](C)(C)CCCNS(=O)(=O)C(F)(F)C(F)(F)C(F)(F)C(F)(F)F [Example 4]			20.1			
CCN(CCSC(CC(=O)O)C(=O)O)S(=O)(=O)C(F)(F)C(F)(F)C(F)(F)C(F)(F)C(F)(F)C(F)(F)C(F)(F)C(F)(F)F (stereo not drawn) [Example 6]			19.3			
